From ChEMBL document CHEMBL1649149, “Sitafloxacin and garenoxacin may overcome the antibiotic resistance of Helicobacter pylori with gyrA mutation” (2009) come the findings set out here.

Converted amounts (≈) assume the structure as drawn.

As a reminder, the MIC50 is an inhibitory concentration at the 50% level, which refers to growth in some studies and to a panel of isolates in others. Lower therefore signals greater potency. In general, MIC90 refers to the lowest concentration that inhibits either 90% of growth or 90% of the strains tested, depending on the study. High values mean lower susceptibility, low ones higher susceptibility. A word on the MIC: it is the least concentration at which growth counts as inhibited.

Assay type in all cases: functional
Experiment [1] has as its system Helicobacter pylori. Nature of the experiment: Antibacterial activity against Helicobacter pylori infected in human assessed as bacterial eradication rate at 1 g, po BID for 7 days.
The test system of experiment [2] is Helicobacter pylori. Briefly: Antibacterial activity against Helicobacter pylori infected in human assessed as bacterial eradication rate at 400 mg, po QD for 7 days.
In experiment [3] the test system is Helicobacter pylori. Nature of the experiment: Antibacterial activity against GAT-susceptible Helicobacter pylori infected in human assessed as bacterial eradication rate for 7 days.
Experiment [4] relates to Helicobacter pylori. Briefly: Antibacterial activity against Helicobacter pylori infected in human assessed as bacterial eradication rate at 20 mg, po BID for 7 days.
The subject of experiment [5] is Helicobacter pylori. Nature of the experiment: Antibacterial activity against Helicobacter pylori harboring gyrA mutant gene by agar dilution method. On the technique in general: Agar dilution tests growth on a series of plates holding different concentrations.
For experiment [6], the system named is Helicobacter pylori. Briefly: Antibacterial activity against Helicobacter pylori harboring gyrA mutant gene infected in human assessed as bacterial eradication rate after 7 days.
In experiment [7] the test system is Helicobacter pylori. Briefly: Antibacterial activity against Helicobacter pylori harboring gyrA mutant gene.
For experiment [8], the system named is Helicobacter pylori. Briefly: Antibacterial activity against Helicobacter pylori harboring gyrA mutant gene assessed as resistant isolates.
Experiment [9] relates to Helicobacter pylori. Briefly: Antibacterial activity against Helicobacter pylori infected in human assessed as bacterial eradication rate at 20 mg, po BID for 10 days by 13C-urea breath test.
Experiment [10] deals with Helicobacter pylori. Briefly: Antibacterial activity against Helicobacter pylori.

As to `COCCCOc1ccnc(C[S+]([O-])c2nc3ccccc3[nH]2)c1C` (configuration not stated) [RABEPRAZOLE], the Activity is 84.4% in the experiment with Helicobacter pylori [1], 84.4% in the experiment with Helicobacter pylori [2], 100% in the experiment with Helicobacter pylori [3] and 84.4% with Helicobacter pylori [4].
In the experiment on Helicobacter pylori [5], `C[C@H]1NCc2cc(-c3ccc4c(=O)c(C(=O)O)cn(C5CC5)c4c3OC(F)F)ccc21` [GARENOXACIN] gave an MIC50 of 0.5 µg/mL (≈ 1.17 µM) and an MIC90 of 1 µg/mL (≈ 2.35 µM).
In the case of `COc1c(N2CCNC(C)C2)c(F)cc2c(=O)c(C(=O)O)cn(C3CC3)c12` (configuration not stated) [GATIFLOXACIN], the Activity in the experiment on Helicobacter pylori [6] is listed as 33.3%; in the experiment on Helicobacter pylori [8] it was 47.9%; with Helicobacter pylori [1], 84.4%; with Helicobacter pylori [2], 84.4%; in the experiment with Helicobacter pylori [4] it was 84.4%. In the experiment on Helicobacter pylori [7], the MIC was at least 1 µg/mL. In the experiment on Helicobacter pylori [5], the MIC50 turned out to be 2 µg/mL (≈ 5.33 µM). For the same compound, the MIC90 in the experiment with Helicobacter pylori [5] was 4 µg/mL (≈ 10.7 µM).
Consider `COc1ccc2[nH]c([S+]([O-])Cc3ncc(C)c(OC)c3C)nc2c1` (configuration not stated) [OMEPRAZOLE], for which the Activity with Helicobacter pylori [9] was determined as 66%.
`CC1(C)S[C@@H]2[C@H](NC(=O)[C@H](N)c3ccc(O)cc3)C(=O)N2[C@H]1C(=O)O` [AMOXICILLIN]: the Activity in the experiment with Helicobacter pylori [6] was 33.3%; with Helicobacter pylori [1], 84.4%; in the experiment with Helicobacter pylori [2] it was 84.4%; in the experiment on Helicobacter pylori [4], 84.4%.
Consider `N[C@@H]1CN(c2c(F)cc3c(=O)c(C(=O)O)cn([C@@H]4C[C@@H]4F)c3c2Cl)CC12CC2` [SITAFLOXACIN ANHYDROUS], for which the MIC90 in the experiment on Helicobacter pylori [10] is under 0.008 µg/mL. In the experiment with Helicobacter pylori [5], this compound came in with an MIC50 of 0.12 µg/mL (≈ 0.293 µM) and an MIC90 of 0.25 µg/mL (≈ 0.61 µM).
